# The source made the active and inactive calls.
# What was measured:
# A-375 [1] = assay: A375 melanoma cell viability reduction, dose response, counter-screen for MITF modulator project, cherry-pick samples, set 2 (AID 540335); format: functional, cell-based; details: Homo sapiens
# [2] = target: FAD-linked sulfhydryl oxidase ALR (Homo sapiens, UniProt P55789); assay: inhibitors of human ALR sulfhydryl oxidase, dose response, biochemical, H2O2 detection, luminescence, cherry-pick (AID 493248)
# Large T antigen = Large T antigen (Simian virus 40, UniProt P03070); format: functional, Betapolyomavirus macacae;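 note: Confirmatory-stage PubChem screen for compounds that inhibit SV40 T antigen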
# A-375 [3] = assay: MITF: Counter assay: A375 proliferation Measured in Cell-Based System Using Plate Reader - 2084-03_Inhibitor_Dose_DryPowder_Activity. [Related pubchem assays (depositor defined):AID488944]; format: functional; details: Homo sapiens
# [4] = target: T1, Microphthalmia-associated transcription factor (Homo sapiens, UniProt O75030); assay: TRPM1 promoter luciferase signal decrease, dose response, MITF inhibitor project, cell-based, SK-MEL-5, cherry-picked, set 3 (AID 493073); format: functional
# T1 sequence (O75030 whole entry): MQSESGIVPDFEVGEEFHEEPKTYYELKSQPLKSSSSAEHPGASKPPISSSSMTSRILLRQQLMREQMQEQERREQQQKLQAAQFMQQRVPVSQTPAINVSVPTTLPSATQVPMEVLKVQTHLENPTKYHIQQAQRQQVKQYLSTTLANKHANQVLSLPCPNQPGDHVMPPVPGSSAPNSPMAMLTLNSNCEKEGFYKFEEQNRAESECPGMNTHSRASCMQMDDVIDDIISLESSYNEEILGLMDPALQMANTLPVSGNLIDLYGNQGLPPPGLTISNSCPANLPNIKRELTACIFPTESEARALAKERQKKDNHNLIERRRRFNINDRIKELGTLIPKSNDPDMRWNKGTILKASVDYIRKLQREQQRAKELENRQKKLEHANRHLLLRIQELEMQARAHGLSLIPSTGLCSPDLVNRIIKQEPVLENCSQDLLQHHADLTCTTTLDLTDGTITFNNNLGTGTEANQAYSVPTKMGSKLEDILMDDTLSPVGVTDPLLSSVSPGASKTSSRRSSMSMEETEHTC
# [5] = target: Beta-adrenergic receptor kinase 1 (Homo sapiens, UniProt P25098); assay: GRK2 inhibitors displacing RNA aptamer, dose response, biochemical, flow cytometry beads, FAM-aptamer, powder set 1 (AID 588720)
# [6] = target: T2, Dual specificity protein phosphatase 6 (Rattus norvegicus, UniProt Q64346); format: functional
# [7] = target: Glyceraldehyde-3-phosphate dehydrogenase (Homo sapiens, UniProt P04406)
# [8] = target: T2, Dual specificity protein phosphatase 6
# [9] = target: T3, Tyrosine-protein phosphatase non-receptor type 7 (Homo sapiens, UniProt P35236); format: functional
# T3 sequence (P35236 whole entry): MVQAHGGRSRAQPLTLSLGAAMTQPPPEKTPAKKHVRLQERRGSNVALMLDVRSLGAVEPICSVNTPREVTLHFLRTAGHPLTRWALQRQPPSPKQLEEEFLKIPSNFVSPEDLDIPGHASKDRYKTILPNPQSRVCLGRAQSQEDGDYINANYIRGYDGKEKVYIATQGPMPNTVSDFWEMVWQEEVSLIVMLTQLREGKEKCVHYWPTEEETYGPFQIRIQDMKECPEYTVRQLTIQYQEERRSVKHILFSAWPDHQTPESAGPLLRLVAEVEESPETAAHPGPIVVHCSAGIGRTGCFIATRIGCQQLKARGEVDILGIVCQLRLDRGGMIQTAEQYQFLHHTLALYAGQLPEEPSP
# [10] = target: Delta-type opioid receptor (Homo sapiens, UniProt P41143); assay: Counterscreen for agonists of heterodimerization of the mu 1 (OPRM1) and delta 1 (OPRD1) opioid receptors: Luminescence-based cell-based high throughput dose response assay to identify agonists of OPRD1 homodimerization. [Related pubchem assays (depositor defined):AID504326, AID504355, AID504692, AID504904, AID504905]; format: functional
# Mu-type opioid receptor = Mu-type opioid receptor (Homo sapiens, UniProt P35372); assay: Counterscreen for agonists of heterodimerization of the mu 1 (OPRM1) and delta 1 (OPRD1) opioid receptors: Luminescence-based cell-based high throughput dose response assay to identify agonists of OPRM1 homodimerization.; format: functional;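 note: U2OS cells expressing OPRM1 and beta-arrestin as split beta-galactosidase partners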
# [11] = target: 5-hydroxytryptamine receptor 5A (Homo sapiens, UniProt P47898); assay: Counterscreen for agonists of OPRM1-OPRD1 heterodimerization: luminescence-based cell-based high throughput dose response assay to identify agonists of 5-hydroxytryptamine (serotonin) 5A receptor (HTR5A). [Related pubchem assays (depositor defined):AID504326, AID504355, AID504692, AID504904, AID504905]; format: functional
# [12] = target: T4, Short transient receptor potential channel 4 (Mus musculus, UniProt Q9QUQ5); assay: mouse TRPC4 channel activators, dose response, cell-based, HEK293 TRPC4/mu-opioid, Fluo-4 calcium (AID 434937); format: functional
# T4 sequence (Q9QUQ5 whole entry): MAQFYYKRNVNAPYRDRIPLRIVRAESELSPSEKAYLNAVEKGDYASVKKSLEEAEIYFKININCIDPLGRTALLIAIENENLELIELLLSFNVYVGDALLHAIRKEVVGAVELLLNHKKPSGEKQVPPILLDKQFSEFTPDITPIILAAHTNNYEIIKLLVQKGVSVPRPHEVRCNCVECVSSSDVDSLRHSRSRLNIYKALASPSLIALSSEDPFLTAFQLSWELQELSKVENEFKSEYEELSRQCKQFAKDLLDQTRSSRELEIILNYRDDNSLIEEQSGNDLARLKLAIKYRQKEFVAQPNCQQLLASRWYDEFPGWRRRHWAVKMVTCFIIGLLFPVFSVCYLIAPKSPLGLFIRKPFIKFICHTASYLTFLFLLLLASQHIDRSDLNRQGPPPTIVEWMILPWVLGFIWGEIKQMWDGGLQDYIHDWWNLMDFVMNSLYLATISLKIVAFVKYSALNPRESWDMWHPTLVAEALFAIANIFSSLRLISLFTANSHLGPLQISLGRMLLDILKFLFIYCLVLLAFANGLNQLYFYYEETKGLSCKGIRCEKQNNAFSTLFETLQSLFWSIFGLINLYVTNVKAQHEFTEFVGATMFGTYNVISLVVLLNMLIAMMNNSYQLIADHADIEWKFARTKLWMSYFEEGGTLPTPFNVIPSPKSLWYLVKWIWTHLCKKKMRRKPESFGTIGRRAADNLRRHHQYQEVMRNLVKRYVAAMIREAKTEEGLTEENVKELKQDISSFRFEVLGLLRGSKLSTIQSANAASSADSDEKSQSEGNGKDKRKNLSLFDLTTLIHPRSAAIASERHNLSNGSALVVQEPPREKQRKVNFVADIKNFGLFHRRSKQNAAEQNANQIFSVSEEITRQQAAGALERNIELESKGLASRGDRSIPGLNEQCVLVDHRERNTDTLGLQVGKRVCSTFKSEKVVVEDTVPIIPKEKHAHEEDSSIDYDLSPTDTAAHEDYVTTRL
# Escherichia coli [13] = assay: microbe, parasite or virus in culture
# [14] = HepG2 cell cytotoxicity, dose response, cytotoxicity control for Shn3 inhibitor project, CellTiter-Glo, cherry-picked (AID 624134); format: functional, cell-based
# [15] = Shn3 3'UTR reporter inhibitors, dose response, cell-based, Clone20 osteoblasts, firefly luciferase, cherry-picked (AID 624132); format: functional;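 note: firefly luciferase luminescence from reporter carrying the Shn3 3'UTR in osteoblasts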
# Vero [16] = assay: cells; format: functional, cell-based; details: Chlorocebus sabaeus
# Paired box protein Pax-8 = Paired box protein Pax-8 (Homo sapiens, UniProt Q06710); assay: inhibitors of PAX8-driven TPO luciferase reporter, dose response, RMG-I cells, cherry-pick (AID 687027); format: functional, cell-based;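 note: luciferase reporter driven by Pax8 target thyroperoxidase promoter measured by SteadyGlo luminescence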
# Vero [17] = assay: cells; format: functional; details: Chlorocebus sabaeus
# Escherichia coli [18] = assay: microbe, parasite or virus in culture; remark: listed apart in the source
# [19] = control 3'UTR Renilla luciferase suppression, dose response, counter-screen for Shn3 inhibitor project, cell-based, Clone20-Shn3RL, cherry-picked (AID 624133); format: functional
# Hexokinase HKDC1 [20] = target: T5, Hexokinase HKDC1 (Homo sapiens, UniProt Q2TB90); assay: HKDC1 hexokinase inhibitors, SAR follow-up, biochemical, set 2 (AID 588355); format: functional
# T5 sequence (Q2TB90 whole entry): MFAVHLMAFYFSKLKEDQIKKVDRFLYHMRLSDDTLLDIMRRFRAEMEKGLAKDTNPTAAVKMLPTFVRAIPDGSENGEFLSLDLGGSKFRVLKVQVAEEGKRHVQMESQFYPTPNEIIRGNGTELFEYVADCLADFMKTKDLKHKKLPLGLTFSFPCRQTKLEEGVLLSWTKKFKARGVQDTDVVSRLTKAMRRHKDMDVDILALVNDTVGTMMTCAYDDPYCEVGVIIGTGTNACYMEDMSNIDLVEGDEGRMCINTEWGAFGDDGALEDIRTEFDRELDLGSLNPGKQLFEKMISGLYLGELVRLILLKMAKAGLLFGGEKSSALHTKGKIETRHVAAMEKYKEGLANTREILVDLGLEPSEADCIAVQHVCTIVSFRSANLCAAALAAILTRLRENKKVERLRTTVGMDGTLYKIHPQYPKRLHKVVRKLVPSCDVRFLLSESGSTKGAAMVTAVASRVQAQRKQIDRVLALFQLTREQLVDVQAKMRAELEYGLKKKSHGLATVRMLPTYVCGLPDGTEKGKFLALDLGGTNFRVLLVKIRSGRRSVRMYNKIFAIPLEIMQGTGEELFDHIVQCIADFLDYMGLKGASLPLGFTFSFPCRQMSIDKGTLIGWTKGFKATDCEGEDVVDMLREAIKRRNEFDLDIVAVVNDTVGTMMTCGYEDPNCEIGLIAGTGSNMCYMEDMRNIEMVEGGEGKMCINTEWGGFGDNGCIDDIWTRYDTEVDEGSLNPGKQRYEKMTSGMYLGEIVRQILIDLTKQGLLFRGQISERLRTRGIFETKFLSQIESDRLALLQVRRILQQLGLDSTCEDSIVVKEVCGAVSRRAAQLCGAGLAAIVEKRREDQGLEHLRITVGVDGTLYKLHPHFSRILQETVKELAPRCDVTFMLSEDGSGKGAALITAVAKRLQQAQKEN
# Hexokinase-1 [21] = target: T6, Hexokinase-1 (Homo sapiens, UniProt P19367); assay: HK1 enzyme inhibition by HKDC1 hits, SAR follow-up, selectivity assay for HKDC1 inhibitor project, biochemical, set 2, resazurin fluorescence coupled readout (AID 588356); format: functional
# Hexokinase HKDC1 [22] = target: T5, Hexokinase HKDC1; assay: SAR analysis of small molecule inhibitors of hexokinase domain containing I (HKDC1). [Related pubchem assays (depositor defined):AID493160, AID493190]; format: functional
# Hexokinase-1 [23] = target: T6, Hexokinase-1; assay: SAR analysis of small molecule inhibitors of hexokinase domain containing I (HKDC1) in the hexokinase 1 selectivity assay. [Related pubchem assays (depositor defined):AID493160, AID493190]; format: functional
# T6 sequence (P19367 whole entry, the tested form may be a part): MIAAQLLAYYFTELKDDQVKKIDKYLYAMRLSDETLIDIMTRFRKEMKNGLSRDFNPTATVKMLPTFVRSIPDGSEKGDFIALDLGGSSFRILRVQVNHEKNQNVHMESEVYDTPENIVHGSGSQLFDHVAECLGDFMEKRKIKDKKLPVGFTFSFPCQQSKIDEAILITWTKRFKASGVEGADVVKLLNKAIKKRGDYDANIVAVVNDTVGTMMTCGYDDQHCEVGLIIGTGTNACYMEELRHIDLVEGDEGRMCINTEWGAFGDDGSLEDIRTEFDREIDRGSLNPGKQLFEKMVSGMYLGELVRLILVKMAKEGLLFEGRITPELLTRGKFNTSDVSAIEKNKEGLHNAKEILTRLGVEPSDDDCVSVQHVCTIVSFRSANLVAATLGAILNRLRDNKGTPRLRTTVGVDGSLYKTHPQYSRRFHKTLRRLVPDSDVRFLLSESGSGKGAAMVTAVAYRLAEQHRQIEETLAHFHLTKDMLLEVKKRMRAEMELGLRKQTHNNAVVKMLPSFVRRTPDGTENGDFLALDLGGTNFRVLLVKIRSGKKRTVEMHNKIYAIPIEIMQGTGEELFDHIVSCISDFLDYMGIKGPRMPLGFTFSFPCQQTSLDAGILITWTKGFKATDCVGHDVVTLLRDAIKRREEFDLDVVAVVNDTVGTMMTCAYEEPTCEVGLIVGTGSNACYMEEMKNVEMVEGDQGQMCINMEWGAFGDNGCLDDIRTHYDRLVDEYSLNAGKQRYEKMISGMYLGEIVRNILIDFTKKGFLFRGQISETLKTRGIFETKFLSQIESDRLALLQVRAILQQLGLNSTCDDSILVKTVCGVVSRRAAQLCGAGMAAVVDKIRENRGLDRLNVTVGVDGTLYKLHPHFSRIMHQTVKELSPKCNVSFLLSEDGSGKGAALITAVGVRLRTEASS
# T2 sequence (Q64346 whole entry): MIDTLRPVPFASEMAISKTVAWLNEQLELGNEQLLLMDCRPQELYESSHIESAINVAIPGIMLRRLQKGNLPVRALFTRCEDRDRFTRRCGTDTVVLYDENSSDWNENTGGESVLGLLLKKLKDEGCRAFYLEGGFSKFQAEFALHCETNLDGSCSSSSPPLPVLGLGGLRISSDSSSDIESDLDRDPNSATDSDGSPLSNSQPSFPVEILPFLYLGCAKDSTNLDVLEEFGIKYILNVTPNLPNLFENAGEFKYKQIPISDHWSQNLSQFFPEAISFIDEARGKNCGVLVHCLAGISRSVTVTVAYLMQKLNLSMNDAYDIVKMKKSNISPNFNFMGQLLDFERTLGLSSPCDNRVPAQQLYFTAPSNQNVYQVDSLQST
# Chain of 5-hydroxytryptamine receptor 5A (P47898 whole entry): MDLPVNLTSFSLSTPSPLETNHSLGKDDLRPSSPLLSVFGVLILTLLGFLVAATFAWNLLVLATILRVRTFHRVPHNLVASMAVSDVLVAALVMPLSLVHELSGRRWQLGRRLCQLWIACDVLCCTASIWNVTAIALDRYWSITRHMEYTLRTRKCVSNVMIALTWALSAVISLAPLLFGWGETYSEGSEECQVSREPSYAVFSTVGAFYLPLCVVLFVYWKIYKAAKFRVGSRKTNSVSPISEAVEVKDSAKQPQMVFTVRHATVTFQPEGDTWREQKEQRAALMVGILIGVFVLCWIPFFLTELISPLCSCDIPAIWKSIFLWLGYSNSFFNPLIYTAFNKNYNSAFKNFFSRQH
# Chain of Delta-type opioid receptor (P41143 whole entry): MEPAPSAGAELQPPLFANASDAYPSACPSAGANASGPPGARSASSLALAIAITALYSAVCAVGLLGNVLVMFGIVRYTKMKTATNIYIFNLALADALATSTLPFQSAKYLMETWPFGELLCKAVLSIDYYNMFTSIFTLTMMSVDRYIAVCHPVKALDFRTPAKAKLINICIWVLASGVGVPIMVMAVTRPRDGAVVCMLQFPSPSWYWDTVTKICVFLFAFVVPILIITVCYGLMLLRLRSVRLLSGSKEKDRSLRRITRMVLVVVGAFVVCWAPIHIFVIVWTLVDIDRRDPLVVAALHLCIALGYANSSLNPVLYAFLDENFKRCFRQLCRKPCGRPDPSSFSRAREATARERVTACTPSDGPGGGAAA
# Chain of Beta-adrenergic receptor kinase 1 (P25098 whole entry): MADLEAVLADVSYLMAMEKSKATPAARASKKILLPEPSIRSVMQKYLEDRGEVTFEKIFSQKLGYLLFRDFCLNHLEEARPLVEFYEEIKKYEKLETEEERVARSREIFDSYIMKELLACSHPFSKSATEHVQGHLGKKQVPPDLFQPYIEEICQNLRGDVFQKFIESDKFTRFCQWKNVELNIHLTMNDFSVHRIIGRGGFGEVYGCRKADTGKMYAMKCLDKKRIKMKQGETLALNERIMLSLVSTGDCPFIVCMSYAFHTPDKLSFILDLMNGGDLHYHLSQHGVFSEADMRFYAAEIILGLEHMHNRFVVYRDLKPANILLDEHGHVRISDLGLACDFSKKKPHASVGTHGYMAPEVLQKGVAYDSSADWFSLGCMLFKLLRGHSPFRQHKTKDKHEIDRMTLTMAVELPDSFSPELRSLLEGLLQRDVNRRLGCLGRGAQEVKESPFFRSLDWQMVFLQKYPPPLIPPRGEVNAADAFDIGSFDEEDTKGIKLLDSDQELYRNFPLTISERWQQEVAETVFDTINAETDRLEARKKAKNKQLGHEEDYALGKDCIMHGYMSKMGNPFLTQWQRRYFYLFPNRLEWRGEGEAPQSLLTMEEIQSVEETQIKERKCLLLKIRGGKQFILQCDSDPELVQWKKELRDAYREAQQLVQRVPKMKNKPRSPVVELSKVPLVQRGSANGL
# Chain of Paired box protein Pax-8 (Q06710 whole entry): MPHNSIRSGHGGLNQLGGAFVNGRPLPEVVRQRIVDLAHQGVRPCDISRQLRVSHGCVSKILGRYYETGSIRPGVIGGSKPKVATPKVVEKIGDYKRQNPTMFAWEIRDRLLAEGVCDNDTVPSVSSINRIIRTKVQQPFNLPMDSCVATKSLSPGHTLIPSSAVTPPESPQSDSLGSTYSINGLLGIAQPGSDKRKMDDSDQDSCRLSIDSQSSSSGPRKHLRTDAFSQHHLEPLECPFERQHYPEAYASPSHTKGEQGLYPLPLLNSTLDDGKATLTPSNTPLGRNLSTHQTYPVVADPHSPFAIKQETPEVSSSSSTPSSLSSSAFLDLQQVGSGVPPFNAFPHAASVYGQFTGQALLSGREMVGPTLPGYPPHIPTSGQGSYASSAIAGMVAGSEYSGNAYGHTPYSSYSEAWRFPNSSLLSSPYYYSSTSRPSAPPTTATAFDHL
# Chain of Mu-type opioid receptor (P35372 whole entry): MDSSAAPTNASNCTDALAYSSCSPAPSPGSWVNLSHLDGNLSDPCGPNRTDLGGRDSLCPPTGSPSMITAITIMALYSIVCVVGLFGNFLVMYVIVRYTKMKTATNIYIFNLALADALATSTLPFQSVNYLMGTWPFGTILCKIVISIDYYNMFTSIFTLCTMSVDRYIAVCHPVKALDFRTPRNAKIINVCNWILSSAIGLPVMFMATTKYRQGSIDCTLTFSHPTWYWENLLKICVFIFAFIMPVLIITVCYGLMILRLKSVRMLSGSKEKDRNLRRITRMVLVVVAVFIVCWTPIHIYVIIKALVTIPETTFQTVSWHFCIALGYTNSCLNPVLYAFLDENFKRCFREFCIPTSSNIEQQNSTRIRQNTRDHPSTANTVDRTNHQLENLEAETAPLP
# Chain of Glyceraldehyde-3-phosphate dehydrogenase (P04406 whole entry): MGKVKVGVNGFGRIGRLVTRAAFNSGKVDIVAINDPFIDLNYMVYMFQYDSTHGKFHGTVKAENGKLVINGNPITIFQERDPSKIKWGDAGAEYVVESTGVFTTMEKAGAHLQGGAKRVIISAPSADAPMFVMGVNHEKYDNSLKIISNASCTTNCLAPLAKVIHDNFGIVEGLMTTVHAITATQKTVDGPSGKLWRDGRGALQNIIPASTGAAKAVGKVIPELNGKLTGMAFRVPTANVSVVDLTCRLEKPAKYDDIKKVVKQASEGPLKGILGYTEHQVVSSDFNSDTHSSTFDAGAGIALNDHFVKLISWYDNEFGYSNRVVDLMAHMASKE
# Chain of FAD-linked sulfhydryl oxidase ALR (P55789 whole entry): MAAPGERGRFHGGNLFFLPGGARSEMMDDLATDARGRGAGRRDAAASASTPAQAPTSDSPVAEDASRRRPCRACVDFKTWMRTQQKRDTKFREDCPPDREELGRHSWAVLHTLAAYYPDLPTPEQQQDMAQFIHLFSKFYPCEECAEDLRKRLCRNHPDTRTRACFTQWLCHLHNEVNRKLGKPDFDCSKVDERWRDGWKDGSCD
# Chain of Large T antigen (P03070 whole entry): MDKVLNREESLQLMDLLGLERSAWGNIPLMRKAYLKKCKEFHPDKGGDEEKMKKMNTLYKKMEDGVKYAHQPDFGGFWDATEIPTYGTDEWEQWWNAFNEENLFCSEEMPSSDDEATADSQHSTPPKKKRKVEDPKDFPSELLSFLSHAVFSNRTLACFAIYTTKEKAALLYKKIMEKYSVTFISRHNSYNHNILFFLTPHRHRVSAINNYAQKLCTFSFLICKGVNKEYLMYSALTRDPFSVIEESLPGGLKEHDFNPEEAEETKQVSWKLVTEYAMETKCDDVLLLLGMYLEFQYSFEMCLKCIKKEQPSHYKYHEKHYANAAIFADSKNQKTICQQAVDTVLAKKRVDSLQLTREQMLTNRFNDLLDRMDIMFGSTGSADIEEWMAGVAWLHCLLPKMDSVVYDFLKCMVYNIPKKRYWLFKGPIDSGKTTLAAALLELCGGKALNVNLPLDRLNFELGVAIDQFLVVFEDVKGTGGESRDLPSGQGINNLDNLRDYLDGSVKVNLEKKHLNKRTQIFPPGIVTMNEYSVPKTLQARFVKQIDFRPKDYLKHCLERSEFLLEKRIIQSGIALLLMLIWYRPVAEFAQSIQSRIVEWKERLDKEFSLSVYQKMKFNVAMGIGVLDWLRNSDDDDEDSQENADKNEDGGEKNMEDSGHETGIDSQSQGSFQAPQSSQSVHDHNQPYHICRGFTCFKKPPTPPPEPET
structure (smiles),measurement,setting,value
O=C1NC(=O)N(c2ccccc2)C(=O)/C1=C/C=C/c1ccco1,AC50,A-375 [1],> 35 µM (active)
same,AC50,[2],0.449 µM (active)
same,IC50,Large T antigen,26.5 µM (active)
same,AC50,A-375 [3],> 35 µM (active)
same,AC50,[4],8.29 µM (active)
CCc1ccccc1NC(=O)CCS(=O)(=O)c1ccc(Br)cc1,EC50,[5],3.48 µM (active)
CC(C)[C@@H](C(N)=O)n1c(=O)[nH]c(=O)n(-c2ccc(Cl)cc2)c1=O,IC50,[6],> 100 µM (inactive)
same,IC50,[7],> 100 µM (not active)
same,IC50,[8],> 100 µM (inactive)
same,IC50,[9],> 100 µM (not active)
CN(C)C(CN=C(S)Nc1cccc(Cl)c1)c1cccnc1 (stereo unspecified),EC50,[10],20.5 µM (inactive)
same,EC50,Mu-type opioid receptor,7.49 µM (active)
same,EC50,[11],> 92.5 µM (inactive)
same,EC50,[12],0.0133 µM (active)
CC(N)C(=O)NC1C2C(=C(O)OC1(C)C(Cl)Cl)C(=O)CC(O)C2O (stereo unspecified),AC50,Escherichia coli [13],20.8 µM (active)
same,AC50,[14],> 70 µM (inactive)
same,AC50,[15],1.85 µM (active)
same,IC50,Vero [16],> 25 µM (active)
same,AC50,Paired box protein Pax-8,0.546 µM (active)
same,CC50,Vero [17],3.08 µM (active)
same,AC50,Escherichia coli [18],113 µM (active)
same,AC50,[19],2.03 µM (active)
Cc1ccccc1N1C(=O)c2ccccc2C1Nc1ccc(Br)cc1 (stereo unspecified),IC50,Hexokinase HKDC1 [20],> 80 µM (inactive)
same,IC50,Hexokinase-1 [21],> 80 µM (inactive)
N#Cc1ccc(CSc2nnc(NC(=O)c3ccc4ccccc4n3)s2)cc1,IC50,Hexokinase HKDC1 [22],> 80 µM (inactive)
same,IC50,Hexokinase-1 [23],> 80 µM (inactive)
